The test system of one assay is PC3 (prostate). In words: In vitro cytotoxic activity MTT assay, PC3. The format is cell-based. The conditions noted are these: Homo sapiens, Prostate cell; PC3 (prostate) cells, exposed for 96 hours; read-out: Cytotoxicity activity IC50 (50% inhibition of cell proliferation). The protocol: (§1) Compounds 1-16 were screened for their in vitro cytotoxic activity utilizing a 3-(4,5-dimethyl-thiazol-2-yl)-2,5-diphenyltetrazolium bromide (MTT) assay against selected cancer human cell lines consisting of PC3 (prostate), HCT116 (colon), A375 (melanoma), H1299 (lung), MIAPaCa-2 (pancreas), HL60 (leukemia), MCF7 (breast), MDA-MB-231 (breast) (T. Mosmann, J. Immunol. Meth., 1983, 65, 55-63). The cells were cultured at 37° C. in RMPI1640 medium supplemented with 10% fetal bovine serum, 50 IU/mL penicillin, and 50 μg/mL streptomycin in a 5% CO2 incubator. All cells were sub-cultured 3 times/week by trypsinisation. Viable cells were seeded and allowed to adhere for 12 hours before a test drug was added in 96-well plates at an initial density of 1.0×10^5 cells/mL. Tumor cell lines were separately exposed to various concentrations of the tested compounds followed by incubation at a temperature of 37° C. during 96 hours inside a medium of fresh RMPI 1640. Cells were subsequently incubated at 37° C. using MTT at 0.5 mg/mL during 4 hours. After removal of supernatant, formazan crystals were dissolved in isopropanol and the optical density was measured at 570 nm. CX-4945 was used as a positive control.
For orientation: Tetrazolium dyes change colour on reduction, which living cells bring about.

A further assay concerns HL60 (leukemia). The experiment in a line: In vitro cytotoxic activity MTT assay, HL60. The class given is cell-based. To be noted: Homo sapiens, HL-60; HL60 (leukemia) cells, exposed for 96 hours; read-out: Cytotoxicity activity IC50 (50% inhibition of cell proliferation). On the procedure: as §1
The next assay has as its system MDA-MB-231 (breast). The experiment in a line: In vitro cytotoxic activity MTT assay, MDA-MB-231. The format is cell-based. To be noted: Homo sapiens; MDA-MB-231 (breast) cells, exposed for 96 hours; read-out: Cytotoxicity activity IC50 (50% inhibition of cell proliferation). The protocol: as §1
For a further assay, the system named is HCT116 (colon). In words: In vitro cytotoxic activity MTT assay, HCT116. The format is cell-based. To be noted: Homo sapiens, HCT-116; HCT116 (colon) cells, exposed for 96 hours; read-out: Cytotoxicity activity IC50 (50% inhibition of cell proliferation). On the procedure: as §1
A further assay relates to MCF7 (breast). In words: In vitro cytotoxic activity MTT assay, MCF7. The class given is cell-based. To be noted: Homo sapiens; MCF7 (breast) cells, exposed for 96 hours; read-out: Cytotoxicity activity IC50 (50% inhibition of cell proliferation). On the procedure: as §1
A further assay has as its system H1299 (lung). In words: In vitro cytotoxic activity MTT assay, H1299. To be noted: Homo sapiens, NCI-H1299; H1299 (lung) cells, exposed for 96 hours; read-out: Cytotoxicity activity IC50 (50% inhibition of cell proliferation). The class given is cell-based. The protocol: as §1
The subject of another assay is A375 (melanoma). In words: In vitro cytotoxic activity MTT assay, A375. To be noted: Homo sapiens, A-375; A375 (melanoma) cells, exposed for 96 hours; read-out: Cytotoxicity activity IC50 (50% inhibition of cell proliferation). The class given is cell-based. On the procedure:
as §1

For another assay, the system named is MIAPaCa-2 (pancreas). In words: In vitro cytotoxic activity MTT assay, MIAPaCa-2. The format is cell-based. The conditions noted are these: Homo sapiens, MIA PaCa-2; MIAPaCa-2 (pancreas) cells, exposed for 96 hours; read-out: Cytotoxicity activity IC50 (50% inhibition of cell proliferation). On the procedure: as §1
Assay [1] addresses T1, recombinant human CK2 (RRββ-holoenzyme) (Homo sapiens, UniProt P68400).
T1 construct: purchased Millipore
In words: CK2 Kinase Assay (radiometric, [γ-33P] ATP). The conditions noted are these: final ATP concentration 15 μM, 10 min at 30° C., eight concentrations; read-out: protein kinase CK2 activity IC50. The class given is biochemical. The protocol: CK2 Kinase Assay was conducted using the protocol as described in Pierre F. et al; J. Med. Chem. 2011, 54, 635-654. The tested compounds in aqueous solution were added at a volume of 10 μL to a reaction mixture comprising 10 μL of assay dilution buffer (ADB; 20 mM MOPS, pH 7.2, 25 mM β-glycerol phosphate, 5 mM EGTA, 1 mM sodium orthovanadate, and 1 mM dithiothreitol), 10 μL of substrate peptide (RRRDDDSDDD, dissolved in ADB at a concentration of 1 mM), 10 μL of recombinant human CK2 (RRββ-holoenzyme, 25 ng dissolved in ADB; Millipore). Reactions were initiated by the addition of 10 μL of ATP solution (90%75 mM MgCl2, 75 μM ATP (final ATP concentration: 15 μM) dissolved in ADB; 10% [γ-33P] ATP (stock 1 mCi/100 μL; 3000 Ci/mmol (Perkin-Elmer) and maintained for 10 min at 30° C. The reactions were quenched with 100 μL of 0.75% phosphoric acid and then transferred to and filtered through a phosphor cellulose filter plate (Millipore). After washing each well five times with 0.75% phosphoric acid, the plate was dried under vacuum for 5 min and, following the addition of 15 μL of scintillation fluid to each well, the residual radioactivity was measured using a Wallac […]. The IC50 values were derived from eight concentrations of test inhibitors.

T1 sequence (P68400 whole entry): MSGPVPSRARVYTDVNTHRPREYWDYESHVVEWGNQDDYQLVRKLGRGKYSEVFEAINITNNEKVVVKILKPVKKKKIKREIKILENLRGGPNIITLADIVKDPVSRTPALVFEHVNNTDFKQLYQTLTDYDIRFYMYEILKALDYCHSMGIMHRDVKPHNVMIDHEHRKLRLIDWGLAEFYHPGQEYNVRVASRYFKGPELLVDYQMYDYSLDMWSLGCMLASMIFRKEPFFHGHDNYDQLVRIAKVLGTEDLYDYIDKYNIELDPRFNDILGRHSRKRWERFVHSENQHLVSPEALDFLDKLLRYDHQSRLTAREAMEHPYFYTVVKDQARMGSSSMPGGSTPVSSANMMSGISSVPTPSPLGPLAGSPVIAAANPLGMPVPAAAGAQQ
T1 sequence (P67870 whole entry partner): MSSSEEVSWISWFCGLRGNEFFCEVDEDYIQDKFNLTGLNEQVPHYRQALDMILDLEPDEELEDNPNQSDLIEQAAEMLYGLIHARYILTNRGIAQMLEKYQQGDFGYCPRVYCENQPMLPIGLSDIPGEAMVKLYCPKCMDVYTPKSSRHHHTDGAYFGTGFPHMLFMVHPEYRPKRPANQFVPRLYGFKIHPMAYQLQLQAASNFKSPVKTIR

As for `O=C(O)c1ccn2c1c(Nc1cccc(Cl)c1)nc1ccncc12` [Compound 1, 6-((3-chlorophenyl)amino)pyrido[4,3-e]pyrrolo[1,2-a]pyrazine-7-carboxylic acid], the IC50 in the assay with PC3 (prostate) is 2.8 µM; in the assay with HL60 (leukemia) it was 3.2 µM; in the assay with MDA-MB-231 (breast), 5.3 µM; with HCT116 (colon), 1.5 µM; in the assay with MCF7 (breast), 5.9 µM; in the assay on H1299 (lung) it was 2.1 µM. Further, the IC50 was determined as 4.6 µM in the assay on A375 (melanoma), 1.7 µM in the assay on MIAPaCa-2 (pancreas) and 0.091 µM in [1].

Source of the values: patent US12122775B1, “Substituted pyrido[4,3-e]pyrrolo[1,2-a]pyrazines as CK2 inhibitors” (KING FAISAL UNIVERSITY, priority 2024, dated 2024).
